Entries after “also recorded” stand apart in the source; their conditions may differ.

The source of these data is patent US20240041733A1, “DENTAL CARE COMPOSITION AND METHOD OF PROMOTING CALCIFICATION IN LIVING BODY TISSUE” (KINJIRUSHI CO., LTD., priority 2020, published 2024).

Assay [1] has as its system Human odontoblast (HOB) cells. Put plainly: Evaluation of calcification promoting action using human odontoblasts (Alizarin red and von Kossa staining). In kind it is cell-based. The note with it: for calcification promoting action: calcification medium with additive, Alizarin red / von Kossa staining; for relative calcification promoting action (comparison among compounds): compared by concentration of particularly high action and by extent of staining at 50 μM. As for the experimental part:
1. Cultivation of Human Odontoblast (Human Odontoblast (HOB) Cells)
HOB cells are seeded in a T75 flask and cultivated until confluency was achieved. A culture medium (hereinafter referred to as “regular medium”) was prepared by adding 10% of fetal bovine serum (FBS) (Life Technologies Ltd.; Product No. 10437-028), 1% of penicillin-streptomycin (Life Technologies Ltd.; Product No. 15140-122), 1% of amphotericin B (Sigma-Aldrich, Product No. A2942-100ML) to MEMα (Life Technologies Ltd.; Product No. 12561-049, 12561-056). Cultivation was performed under an environment with a temperature of 37° C. and 5% of CO2.
Then the HOB Cells were seeded on an adherent cell cultivation plate (Sumitomo Bakelite Co., Ltd) such that the cell density per 1 well was 1.78 to 2.56×10^5 cells/mL, and cultivated under the same environment. As the adherent cell cultivation plate, plates having 6 to 96 wells were appropriately used.
Four days later, each culture medium was changed from the regular medium to a calcification medium, or to a culture medium (hereinafter, referred to as “additive containing calcification medium”) prepared by adding additional components shown in the following Table 4 and Table 5 to the calcification medium so as to achieve the concentrations shown in Table 4 and Table 5. The calcification medium is prepared by adding L (+)-ascorbic acid (Wako Pure Chemical Industries, Ltd. (currently Fujifilm Wako Pure Chemical Corporation), Product No. 016-04805) to the aforementioned regular mediums such that the concentration in the calcification medium (that is, the final concentration) was 50 μg/mL, and by adding β-glycerophosphoric acid (Fujifilm Wako Pure Chemical Corporation, Product No. 191-02042) to the aforementioned regular mediums such that the concentration in the calcification medium (that is, the final concentration) is 10 mM.
Then, the cultivation was performed under the environment at 37° C. with 5% of CO2 for 21 or 28 days while exchanging the calcification medium or the additive containing calcification medium twice a week. Then the following staining was performed.
Alizarin red staining and von Kossa staining were performed to evaluate calcification promoting effect.
Each well was washed twice using Dulbecco's phosphate buffered saline (DPBS) (Life Technologies Ltd.; Product No. 14190-144) the amount of which was equal to the specified amount of culture medium in the adherent cell cultivation plate. After removing the DPBS from each well, 4% paraformaldehyde phosphate buffer solution (Fujifilm Wako Pure Chemical Corporation, Product No. 163-20145), the amount of which was equal to a half the amount of the specified amount of the culture medium, was introduced to each well, and each well was left for five minutes at a room temperature.
Then, each well was washed twice using the DPBS the amount of which was equal to the specified amount of the culture medium. After removing the DPBS from each well, Alizarin red staining solution, the amount of which was equal to a half the amount of the specified amount of the culture medium, was introduced to each well, and each well was left for ten minutes. The Alizarin red staining solution was prepared by dissolving a commercially available staining solution (Product name: “Alizarin red S”, Wako Pure Chemical Industries, Ltd. (currently Fujifilm Wako Pure Chemical Corporation), Product No. 011-01192) with ultrapure water (Milli-Q (registered trademark) water), and the pH was adjusted to be within a range from 6.36 to 6.40 using ammonium hydroxide solution.
Each well was then washed five times using the ultrapure water (same as above), the amount of which was equal to the specified amount of the culture medium.
Each well was washed three times using the Dulbecco's phosphate buffered saline (DPBS) (same as above) the amount of which was equal to the specified amount of the culture medium in the adherent cell cultivation plate.

For assay [2] the following is noted: used in human, dental clinical practices; cited from earlier work.

Regarding `C[S+]([O-])CCCCN` (stereo not shown) [4-MS amine, 4-methylsulfinylbutyl amine, reference compound], the calcification promoting action result in assay [1] (HOB cells, 21 or 28 days) was “completely no calcification promoting action”.

Turning to `C[S+]([O-])CCCCN=C=S` (stereo not shown) [4-MSITC, 4-methylsulfinylbutyl isothiocyanate], the calcification promoting action entry in assay [1] (HOB cells, 21 or 28 days) is given as “possess calcification promoting action”. The “relative calcification promoting action (comparison among compounds)” value (from here on “relative calcification promoting action”) in assay [1] is given as “particularly high”.

`CS(=O)(=O)CCCCCCN=C=S` [6-MSFITC, 6-methylsulfonylhexyl isothiocyanate]: the calcification promoting action entry in assay [1] (HOB cells, 21 or 28 days) is given as “possess calcification promoting action”. The “relative calcification promoting action” value in assay [1] is “particularly high; also recorded: higher calcification promoting action than the 4-MSITC”.

Turning to `C[S+]([O-])CCCCCCCCN=C=S` (stereo not shown) [8-MSITC, 8-methylsulfinyloctyl isothiocyanate], the calcification promoting action result in assay [1] (HOB cells, 21 or 28 days) is “possess calcification promoting action”. For the same molecule, in assay [1], the “relative calcification promoting action” value is given as “particularly high; also recorded: about the same as the calcification promoting action of the 4-MSITC”. In the case of `C=CCN=C=S` [AITC, allyl isothiocyanate, reference compound], the calcification promoting action result in assay [1] (HOB cells, 21 or 28 days) is given as “completely no calcification promoting action”. The calcification action result in assay [1] (range up to 500 μM) is recorded as “not exhibited”. For the molecule `S=C=NCCc1ccccc1` [PITC, phenethyl isothiocyanate], the “concentration at which particularly high calcification promoting action was observed” value in assay [1] (HOB cells, 21 or 28 days, staining) is not below 500 µM. Besides, the calcification promoting action result in assay [1] (HOB cells, 21 or 28 days) is reported as “possess calcification promoting action”. As to `[Ca+2].[OH-].[OH-]` [calcium hydroxide], the “normal duration of time until calcification occurs” value in assay [2] is recorded as “three months”. Consider `CCN[C@H]1C[C@H](C)S(=O)(=O)c2sc(S(N)(=O)=O)cc21` [dorzolamide, reference compound], for which, in assay [1] (dorzolamide, inhibitor of carbonic anhydrase, used with 6-MSITC), the “effect on calcification when used with 6-methylsulfinylhexyl isothiocyanate” value is reported as “calcification is inhibited”.
